Data published in patent US20080194574A1, “Pyrazine Derivatives As Effective Compounds Against Infectious Diseases” (AXXIMA PHARMACEUTICALS AG, priority 2003, published 2008).
Like-named read-outs stand apart in the source and are kept apart here.

What was measured:
RICK = RICK (Homo sapiens, UniProt O43353); assay: General kinase assay protocol (33P-ATP, MBP substrate, filter plate): RICK; type: biochemical; conditions: inhibition at concentration 10 μM; read-out: Inhibitory effect on Target RICK
From the text: (§1) General Assay Protocol for all Kinases
(§2) (For UL97 a special UL97 kinase assay was used as described below.)

CDK9 = CDK9 (Homo sapiens, UniProt P50750); assay: General kinase assay protocol (33P-ATP, MBP substrate, filter plate): CDK9; type: biochemical; conditions: inhibition at concentration 10 μM; read-out: Inhibitory effect on Target CDK9
Protocol: as §1, §2
(§3) Final Assay Concentrations:
(§4) • 1) Add 8 μl 50 μM MBP in Reaction Buffer to each well of Assay Plate • 2) Add 10 μl 500 mM EDTA in H2O to C− wells • 3) Add 8 μl 62.5 μCi/ml Adenosine 5′-[γ-^33P]triphosphate+5 μM ATP in Reaction Buffer to each well • 4) Add 8 μl 5 fold concentrated inhibitor in 5% DMSO in Reaction Buffer to each well except to C− and C+ wells • 5) Add 8 μl 5% DMSO in Reaction Buffer to C− and C+wells • 6) Add 8 μl 5 fold concentrated kinase in Reaction Buffer to each well • 7) Incubate 1 hr at room temperature • 8) Add 10 μl 50 mM EDTA in H2O to each well except to C− wells • 9) Prepare MAPH plates by adding 200 μl 0.75% H3PO4 to each well • 10) Exhaust 0.75% H3PO4 using Millipore vacuum station • 11) Add 60 μl 0.75% H3PO4 to each well of MAPH Filter Plate • 12) Transfer 30 μl sample per well from Assay Plate to corresponding well of MAPH Filter Plate • 13) Incubate 30 min at room temperature • 14) Wash each well of MAPH Filter Plates 3× with 200 μl 0.75% H3PO4 using Millipore vacuum station • 15) Add 20 μl Szintilation Liquid to each well of MAPH Filter Plate • 16) Seal MAPH Filter Plate • 17) Store MAPH Filter Plate 30 min in darkness • 18) Quantify radioactivity

SRPK1 = SRPK1 (Homo sapiens, UniProt Q96SB4); assay: General kinase assay protocol (33P-ATP, MBP substrate, filter plate): SRPK1; type: biochemical; conditions: inhibition at concentration 10 μM; read-out: Inhibitory effect on Target SRPK1
Protocol: as §1, §2, §3, §4

viral kinase pUL-97 = biological target: T1, viral kinase pUL-97 (Human cytomegalovirus, UniProt P16788); assay: UL97 kinase assay on Immobilon plate; type: biochemical
T1 construct: The pUL-97 gene was cloned into a baculovirus vector; GST (glutathione S-transferase) (N); made in house; host or cells: Sf9 insect cells, baculovirus
Summary of the method: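 Compound was titrated into a radiometric reaction of Sf9-expressed GST-UL97 kinase, incubated 1 h at 30 °C in Tris-HCl pH 7.5/MnCl2/DTT buffer before EDTA stop. MBP substrate and ATP (3 μM in the added assay buffer) were supplied with γ-[33P]ATP. Labelled product bound to Immobilon filter was washed and counted by scintillation.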

HCMV strain AD169 = assay: HCMV replication assay (reporter gene) in human foreskin fibroblasts; type: cell-based, human cytomegalovirus; conditions: Human betaherpesvirus 5; HCMV strain AD169 in HFF cells; read-out: IC50 in inhibiting replication of HCMV
Protocol: To examine the effect of the pyrazine derivatives on HCMV replication, HCMV infections were performed in a cellular system.
Human foreskin fibroblasts (HFFs) were grown to subconfluency in 12 well plates and infected with 0.25 tissue culture infectious doses of HCMV AD-169 carrying a reporter gene (HCMV based antiviral assay). Pyrazine derivatives (stocks in DMSO (Dimethylsulfoxide)) were diluted in culture medium to the concentrations indicated and added to the cells immediately after virus adsorption. The success of infection (reporter gene expressing cells) and the lack of cytotoxicity of the compound (confluent cell layer) was monitored by microscopy. After seven days, cell layers were harvested, lysed and subjected to the automated fluorometry measurement of reporter gene activity. Each panel refers to a determination in quadruplicate (infection in duplicate, lysate preparation and measurement in duplicate).

[1] = inhibition of UL 97 kinase activity, class by IC50 / % inhibition at 10 or 100 μM, read-out: Activity Class [A, B, C]
[2] = inhibition of UL 97 kinase activity, class by IC50 / % inhibition at 10 μM or 100 μM, read-out: Activity Class [A, B, C]

Sequence of RICK (O43353 whole entry, species assumed): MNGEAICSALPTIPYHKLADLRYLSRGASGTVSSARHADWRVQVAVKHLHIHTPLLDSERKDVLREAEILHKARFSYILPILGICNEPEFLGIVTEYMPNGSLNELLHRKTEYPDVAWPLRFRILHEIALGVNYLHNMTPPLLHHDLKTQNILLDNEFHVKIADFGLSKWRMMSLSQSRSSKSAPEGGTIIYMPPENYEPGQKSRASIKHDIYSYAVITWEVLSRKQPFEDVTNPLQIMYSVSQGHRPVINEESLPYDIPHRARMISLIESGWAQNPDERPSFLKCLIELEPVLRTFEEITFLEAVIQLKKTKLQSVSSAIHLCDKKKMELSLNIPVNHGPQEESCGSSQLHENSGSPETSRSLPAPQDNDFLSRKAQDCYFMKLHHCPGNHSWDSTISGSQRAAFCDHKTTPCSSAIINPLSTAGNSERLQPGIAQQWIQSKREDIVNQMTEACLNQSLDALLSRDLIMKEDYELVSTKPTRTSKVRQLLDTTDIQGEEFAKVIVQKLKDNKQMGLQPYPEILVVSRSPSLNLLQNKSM
T1 sequence (P16788 whole entry): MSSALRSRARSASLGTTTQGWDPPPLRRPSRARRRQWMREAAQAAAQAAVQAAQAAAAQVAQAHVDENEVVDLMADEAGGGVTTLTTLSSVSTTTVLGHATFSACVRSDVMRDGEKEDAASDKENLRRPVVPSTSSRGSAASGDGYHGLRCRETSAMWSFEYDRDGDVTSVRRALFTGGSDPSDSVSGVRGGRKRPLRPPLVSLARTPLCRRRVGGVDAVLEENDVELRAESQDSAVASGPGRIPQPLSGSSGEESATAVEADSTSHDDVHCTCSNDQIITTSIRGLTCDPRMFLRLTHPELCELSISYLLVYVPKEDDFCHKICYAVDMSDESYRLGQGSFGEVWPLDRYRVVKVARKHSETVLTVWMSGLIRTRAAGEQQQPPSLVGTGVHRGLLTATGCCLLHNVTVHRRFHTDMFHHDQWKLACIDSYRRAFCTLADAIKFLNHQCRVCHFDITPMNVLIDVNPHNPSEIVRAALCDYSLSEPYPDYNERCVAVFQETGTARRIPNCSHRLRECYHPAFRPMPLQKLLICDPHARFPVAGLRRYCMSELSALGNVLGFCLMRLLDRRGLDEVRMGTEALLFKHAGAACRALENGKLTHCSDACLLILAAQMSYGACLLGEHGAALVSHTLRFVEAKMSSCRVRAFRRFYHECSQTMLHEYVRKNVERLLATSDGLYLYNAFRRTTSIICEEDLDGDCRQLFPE
Sequence of CDK9 (P50750 whole entry, species assumed): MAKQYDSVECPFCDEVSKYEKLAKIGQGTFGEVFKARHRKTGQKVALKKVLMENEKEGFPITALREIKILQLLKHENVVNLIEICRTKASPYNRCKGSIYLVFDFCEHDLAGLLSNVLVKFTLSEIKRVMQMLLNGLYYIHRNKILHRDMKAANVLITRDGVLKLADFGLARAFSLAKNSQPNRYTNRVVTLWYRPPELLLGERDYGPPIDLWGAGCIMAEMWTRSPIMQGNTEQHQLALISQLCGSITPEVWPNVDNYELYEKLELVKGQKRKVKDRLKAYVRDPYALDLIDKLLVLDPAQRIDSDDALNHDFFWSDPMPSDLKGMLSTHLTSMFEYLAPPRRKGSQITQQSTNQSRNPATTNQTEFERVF
Sequence of CDK9 (O60563 whole entry partner, species assumed): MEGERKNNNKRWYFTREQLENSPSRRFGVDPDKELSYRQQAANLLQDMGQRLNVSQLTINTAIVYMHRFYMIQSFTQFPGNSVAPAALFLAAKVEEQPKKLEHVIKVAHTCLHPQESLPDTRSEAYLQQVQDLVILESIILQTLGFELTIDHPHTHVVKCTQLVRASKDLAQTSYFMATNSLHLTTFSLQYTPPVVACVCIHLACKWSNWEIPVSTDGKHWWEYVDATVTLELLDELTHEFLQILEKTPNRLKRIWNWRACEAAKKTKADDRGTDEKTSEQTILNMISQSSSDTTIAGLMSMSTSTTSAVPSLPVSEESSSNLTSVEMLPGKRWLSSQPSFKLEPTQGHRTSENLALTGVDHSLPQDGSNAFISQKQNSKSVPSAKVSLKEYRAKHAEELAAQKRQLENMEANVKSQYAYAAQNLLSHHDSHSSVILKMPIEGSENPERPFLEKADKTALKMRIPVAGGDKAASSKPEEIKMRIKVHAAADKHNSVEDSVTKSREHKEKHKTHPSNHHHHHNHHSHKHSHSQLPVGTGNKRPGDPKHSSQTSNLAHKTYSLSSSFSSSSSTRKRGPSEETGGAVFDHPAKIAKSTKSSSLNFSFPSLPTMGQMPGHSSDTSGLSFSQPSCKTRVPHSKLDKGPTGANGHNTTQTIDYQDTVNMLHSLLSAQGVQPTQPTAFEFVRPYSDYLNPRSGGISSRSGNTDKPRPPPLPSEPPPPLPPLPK
Sequence of SRPK1 (Q96SB4 whole entry, species assumed): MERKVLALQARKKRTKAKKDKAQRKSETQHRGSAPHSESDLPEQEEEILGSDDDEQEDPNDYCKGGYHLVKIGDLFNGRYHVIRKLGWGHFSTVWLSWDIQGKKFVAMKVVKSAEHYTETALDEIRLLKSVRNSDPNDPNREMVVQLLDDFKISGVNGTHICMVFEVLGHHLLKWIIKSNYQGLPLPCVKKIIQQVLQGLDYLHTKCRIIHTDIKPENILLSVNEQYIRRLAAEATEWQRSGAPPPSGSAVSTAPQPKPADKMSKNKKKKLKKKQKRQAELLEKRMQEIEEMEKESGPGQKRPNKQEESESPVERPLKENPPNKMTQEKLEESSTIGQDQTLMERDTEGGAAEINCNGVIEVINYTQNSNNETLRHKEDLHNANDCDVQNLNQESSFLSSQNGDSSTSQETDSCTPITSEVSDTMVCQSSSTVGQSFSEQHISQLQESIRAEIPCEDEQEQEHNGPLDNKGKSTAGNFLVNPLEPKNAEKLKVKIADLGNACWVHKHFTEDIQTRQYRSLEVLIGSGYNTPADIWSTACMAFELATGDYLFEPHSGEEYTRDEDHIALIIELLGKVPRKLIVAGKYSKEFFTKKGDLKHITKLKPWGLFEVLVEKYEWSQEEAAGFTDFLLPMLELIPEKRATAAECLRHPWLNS

Compound	inhibition at 10 µM (RICK) [%]	other results
CN(C)CCNC(=O)c1cccc(-c2cncc(Nc3ccc(Cl)cc3)n2)c1 [Comp. 381]	> 50	inhibition at 10 µM (CDK9): > 50%
Nc1cccc(-c2cncc(Nc3ccc(Cl)cc3)n2)c1 [compound 380]	> 50	
COc1cc(Nc2cncc(-c3ccc(N)cc3)n2)cc(OC)c1OC [compound 398]	> 75	
COc1cccc(-c2cnc(N)c(Nc3ccc4[nH]ccc4c3)n2)c1 [compound 432]	> 75	
CC(=O)Nc1ccc(-c2cncc(Nc3ccccc3)n2)cc1 [Comp. 401]		inhibition at 10 µM (SRPK1): > 50%
OCc1ccccc1-c1cncc(Nc2ccc(Cl)cc2)n1 [compound 420]	> 50	
CN(C)CCNC(=O)c1cccc(-c2cncc(Nc3ccc(C#N)c(Cl)c3)n2)c1 [Comp. 22, 3-[6-(3-Chloro-4-cyano-phenylamino)-pyrazin-2-yl]-N-(2-dimethylamino-ethyl)-benzamide]		inhibition at 10 µM (SRPK1): > 75%; IC50 (viral kinase pUL-97): < 1000 nM
CN(C)c1cccc(-c2cncc(Nc3cccc(C#N)c3)n2)c1 [compound 391]	> 50	
Oc1ccc(-c2cncc(Nc3cccc(C(F)(F)F)c3)n2)cc1 [compound 29, 4-[6-(3-Trifluoromethyl-phenylamino)-pyrazin-2-yl]-phenol]	> 50	IC50 (viral kinase pUL-97; [1]): < 1000 nM
Nc1ncc(-c2ccc(O)cc2)nc1Nc1ccc2[nH]ccc2c1 [compound 428]	> 50	
Oc1ccc(-c2cncc(Nc3ccc(F)c(Cl)c3)n2)cc1 [Comp. 11]	> 50	IC50 (viral kinase pUL-97; [1]): < 1000 nM; inhibition at 10 µM (CDK9): > 75%
Oc1cccc(-c2cncc(Nc3ccc(F)c(Cl)c3)n2)c1 [compound 417]	> 50	
Nc1nc(O)c2ncn(COC(CO)CO)c2n1 [ganciclovir]		IC50 (HCMV strain AD169): 3000 to 4000 nM
COc1cc(Nc2cncc(-c3cccc(F)c3)n2)cc(OC)c1OC [Comp. 7, [6-(3-Fluoro-phenyl)-pyrazin-2-yl]-(3,4,5-trimethoxy-phenyl)-amine]	> 50	IC50 (viral kinase pUL-97; [1]): 1000 to 10000 nM
CC(=O)Nc1ccc(-c2cncc(Nc3ccc(Cl)cc3)n2)cc1 [compound 397]		inhibition at 10 µM (CDK9): > 50%
Cc1ccc(Nc2cncc(-c3ccc(F)cc3F)n2)cc1NS(C)(=O)=O [compound 410]	> 50	
Oc1ccc(-c2cncc(Nc3ccccc3)n2)cc1 [compound 386]	> 75	
COc1cc(Nc2cncc(-c3ccc4ccccc4c3)n2)cc(OC)c1OC [compound 402]	> 75	
COc1cc(Nc2cncc(-c3cccc(O)c3)n2)cc(OC)c1OC [compound 423]	> 50	
COc1ccc(-c2cncc(Nc3cccc(C#N)c3)n2)cc1 [compound 388]	> 50	
CC(=O)Nc1cccc(-c2cncc(Nc3ccc4c(c3)OC(F)(F)C(F)(F)O4)n2)c1 [compound 403]		inhibition at 10 µM (CDK9): > 50%
COc1ccc(N2CCN(c3cncc(-c4cc5ccccc5s4)n3)CC2)cc1 [compound 292, 6′-Benzo[b]thiophen-2-yl-4-(4-methoxy-phenyl)-3,4,5,6-tetrahydro-2H-[1,2′]bipyrazinyl]		IC50 (viral kinase pUL-97; [2]): 1000 to 10000 nM
COc1cc(-c2cncc(Nc3ccc(F)c(Cl)c3)n2)cc(OC)c1OC [compound 382]	> 50	
FC(F)(F)c1ccc(-c2cncc(N3CCN(c4cnccn4)CC3)n2)cc1 [compound 345, 6-(4-Trifluoromethyl-phenyl)-2′,3′,5′,6′-tetrahydro-[2,1′;4′,2″]terpyrazine]		IC50 (viral kinase pUL-97; [2]): 1000 to 10000 nM
COc1cccc(N2CCN(c3cncc(-c4ccc(C)cc4)n3)CC2)c1 [compound 284, 4-(3-Methoxy-phenyl)-6′-p-tolyl-3,4,5,6-tetrahydro-2H-[1,2′]bipyrazinyl]		IC50 (viral kinase pUL-97; [2]): 1000 to 10000 nM
